The values that follow come from patent EP0330353A1, “Tetrazole excitatory amino acid receptor antagonists” (ELI LILLY AND COMPANY, priority 1988, dated 1989).

One test relates to NMDA. Nature of the test: In vivo NMDA-induced lethality in mice. Conditions: for minimal effective dose: Mus musculus, 20 min, read-out: MED. The arrangement: species or system Male Charles River CF1 mice. As to the method:
A typical receptor substance is characterized by N-methyl-D-aspartic acid (NMDA).
Male Charles River CF1 mice held in the laboratory for a minimum of three days were housed, 12 per cage, on sawdust bedding in clear plastic boxes with wire mesh lids. Animals were allowed full access to feed and water prior to testing.
Unless otherwise specified, all test compounds were formulated in dimethylsulfoxide (DMSO) and diluted to a 5% DMSO/sterile water solution by volume. Dosing began at 160 mg/kg. If any significant activity was detected, the test drug dose was divided in half until no more activity was detected. All test compounds were administered using the intraperitoneal injection (i.p.) route at a volume of 0.01 cc/gm.
Five mice were taken from the plastic cages, dosed with the test compound and placed individually in clear plastic observation cages. After a 30 minute drug absorption period, the mice were injected intra-peritoneally with 200 mg/kg of NMDA. This dose of NMDA produces death in more than 95% of control-treated animals. Twenty minutes after the NMDA injection the animals were scored as dead or alive. Data are reported as the minimum effective dose (MED) to block NMDA-induced lethality. Protection from lethality is met by the survival of at least three of the five animals. Data for AP5 and AP7, known excitatory amino acid antagonists, are provided for comparison.

In a further test the test system is NMDA receptors. Kind of test: NMDA-induced seizures in neonatal rats. The format is in vivo, neonatal (7 to 8 days old) Sprague-Dawley rats. The conditions noted are these: lowest dose preventing NMDA-induced seizures in at least 3 of 5 neonatal rats; test drug i.p. in saline 30 min before NMDA 20 mg/kg i.p.; observed 30 min. The protocol: In another experiment, male or female neonatal (7 to 8 days old) Sprague-Dawley rats were removed from the dam and placed in plastic observation chambers that were maintained at 30-32°C. All test drugs were dissolved in normal saline. Activation of NMDA receptors in these rats leads to a readily observable generalized motor seizure in over 95% of the animals.
Animals were injected by the intraperitoneal route with the test drug (1 ml/100 g of body weight) and observed for a 30 minute period for seizure (potential agonist) activity. They were then injected with NMDA at a dose of 20 mg/kg body weight i.p. to test for antagonist activity. […] Generally, five animals were used at each dose of compound. […] The minimum effective dose was the lowest test dose which prevented NMDA-induced seizures in at least three out of five animals.

Setting [1] is: minimum effective dose to block NMDA-induced lethality (survival of at least 3 of 5 mice), test compound i.p. 30 min before 200 mg/kg NMDA i.p., scored 20 min after NMDA.

Where two headings read alike, the source gives them in different places.

On to `NC(CCCCCP(=O)(O)O)C(=O)O` (stereo not drawn) [AP7, reference compound], for which the minimal effective dose in the test on NMDA amounted to 160 mg/kg.

For “cis-(±)-4-[(1(2)-Methyl-1(2)H-tetrazol-5-yl)methyl]-2-piperidinecarboxylic acid [Example 7]”, in the test on NMDA (setting [1]), the MED is recorded as 160 mg/kg. For `O=C(O)[C@H]1C[C@@H](CCc2nn[nH]n2)CCN1` (racemic) [Example 1, cis-(±)-4-[2-(1(2)H-Tetrazol-5-yl)ethyl]-2-piperidinecarboxylic acid], in the test on NMDA (setting [1]), the minimal effective dose is 20 mg/kg. On the same count and under the same terms, as for `NC(CCCP(=O)(O)O)C(=O)O` (stereo not drawn) [AP5, reference compound], the figure is 80 mg/kg; as for `O=C(O)[C@H]1C[C@@H](CCCc2nn[nH]n2)CCN1` (racemic) [Example 2, cis-(±)-4-[3-(1(2)H-Tetrazol-5-yl)propyl]-2-piperidinecarboxylic acid], 10 mg/kg. Still for that read-out and setting: the result for `O=C(O)C1C/C(=C\c2nn[nH]n2)CCN1` (racemic) [Example 4, Z-(±)-4-[(1(2)H-Tetrazol-5-yl)methylidene]-2-piperidinecarboxylic acid] reads 20 mg/kg.

As for `CCOC(=O)C1CC(Cc2nn[nH]n2)CCN1` (racemic) [Example 6, Ethyl cis-(±)-4-[(1(2)H-tetrazol-5-yl)methyl]-2-piperidinecarboxylate], the MED in the test on NMDA receptors is given as 200 mg/kg. As for `O=C(O)[C@H]1C[C@@H](Cc2nn[nH]n2)CCN1` (racemic) [Example 3, cis-(±)-4-[(1(2)H-Tetrazol-5-yl)methyl]-2-piperidinecarboxylic acid], the minimal effective dose with NMDA (setting [1]) was 10 mg/kg. The same measure, in the same setting: the result for `CCCCOC(=O)[C@H]1C[C@@H](Cc2nn[nH]n2)CCN1` (racemic) [Example 5, Butyl cis-(±)-4-[(1(2)H-tetrazol-5-yl)methyl]-2-piperidinecarboxylate] reads 160 mg/kg.
